{"source": "patent US20050009894A1", "about": "(Aventis Pharma S.A., priority 2001, published 2005)", "data": [{"biological_target": "T1, human KDR enzyme (Homo sapiens, UniProt P35968)", "T1 construct": "The cytoplasmic domain of human KDR enzyme is cloned in the form of a GST fusion; GST; made in house; host or cells: SF21 insect cells (baculovirus, pFastBac)", "T1 sequence (P35968 786-1356 limits assumed)": "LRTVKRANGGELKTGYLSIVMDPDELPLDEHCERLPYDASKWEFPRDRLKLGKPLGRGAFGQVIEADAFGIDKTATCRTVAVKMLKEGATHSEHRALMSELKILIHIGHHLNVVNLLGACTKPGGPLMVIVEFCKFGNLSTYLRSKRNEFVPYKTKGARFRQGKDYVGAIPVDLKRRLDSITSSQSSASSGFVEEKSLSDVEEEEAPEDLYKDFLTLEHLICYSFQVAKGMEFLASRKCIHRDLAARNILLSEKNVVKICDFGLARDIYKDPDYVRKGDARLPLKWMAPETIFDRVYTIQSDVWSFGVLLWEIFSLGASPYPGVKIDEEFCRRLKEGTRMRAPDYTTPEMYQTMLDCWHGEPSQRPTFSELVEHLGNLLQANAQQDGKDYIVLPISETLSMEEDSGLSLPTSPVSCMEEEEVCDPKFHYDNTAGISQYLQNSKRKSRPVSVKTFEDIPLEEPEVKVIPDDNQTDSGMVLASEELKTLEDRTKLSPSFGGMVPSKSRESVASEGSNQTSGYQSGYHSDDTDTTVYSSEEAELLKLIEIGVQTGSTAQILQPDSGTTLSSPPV", "assay": "Phosphorylation of the substrate PLCγ by the enzyme KDR in vitro (flashplate technique)", "format": "biochemical", "details": "Activity, Table VII, degrees of activity by IC50 range", "procedure,_shortened": "(§1)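 GST-fused human KDR cytoplasmic domain (Sf21 baculovirus, ~60% pure; 100 ng/well) phosphorylating 2 μg GST-PLCγ SH2-SH3 fragment in MOPS pH 7.2 with MgCl2/MnCl2, 1 h at 37° C. Started with γ33P-ATP plus cold ATP (2 μM in start solution); flashplate radioactivity. % inhibition vs no-compound control; IC50 from dose-response curves.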", "units": {"IC50": "µM"}, "values": [{"smiles": "O=C(Cc1ccccc1)Oc1cc(-c2nc3ccccc3[nH]2)[nH]n1", "note": "[Example 219, Phenyl-acetic acid 5-(1H-benzoimidazol-2-yl)-1H-pyrazol-3-yl ester]", "IC50": "> 3"}]}, {"biological_target": "T1, human KDR enzyme", "assay": "Phosphorylation of the substrate PLCγ by the enzyme KDR in vitro (flashplate technique)", "format": "biochemical", "details": "Table VII, degrees of activity by IC50 range; read-out: Activity", "procedure,_shortened": "as §1", "units": {"IC50": "µM"}, "values": [{"smiles": "CC(C)(C)C(=O)Oc1cc(-c2nc3ccccc3[nH]2)[nH]n1", "note": "[Example 215, 2,2-Dimethyl-propionic acid 5-(1H-benzoimidazole-2-yl)-1H-pyrazol-3-yl ester]", "IC50": "> 3"}, {"smiles": "O=C(COCc1ccccc1)Oc1cc(-c2nc3ccccc3[nH]2)[nH]n1", "note": "[Example 216, Benzyloxy-acetic acid 5-(1H-benzoimidazol-2-yl)-1H-pyrazol-3-yl ester]", "IC50": "> 3"}, {"smiles": "O=C(Oc1cc(-c2nc3ccccc3[nH]2)[nH]n1)c1ccccc1", "note": "[Example 217, Benzoic acid 5-(1H-benzoimidazol-2-yl)-1H-pyrazol-3-yl ester]", "IC50": "0.3 to 3"}, {"smiles": "COc1ccc(C(=O)Oc2cc(-c3nc4ccccc4[nH]3)[nH]n2)cc1", "note": "[Example 218, 4-Methoxy-benzoic acid 5-(1H-benzoimidazol-2-yl)-1H-pyrazol-3-yl ester]", "IC50": "> 3"}, {"smiles": "O=C(Oc1cc(-c2nc3ccccc3[nH]2)[nH]n1)c1c(F)c(F)c(F)c(F)c1F", "note": "[Example 220, 2,3,4,5,6-Pentafluoro-benzoic acid 5-(1H-benzoimidazol-2-yl)-1H-pyrazol-3-yl ester]", "IC50": "> 3"}, {"smiles": "O=C(Oc1cc(-c2nc3ccccc3[nH]2)[nH]n1)C1CC1", "note": "[Example 221, Cyclopropanecarboxylic acid 5-(1H-benzoimidazol-2-yl)-1H-pyrazol-3-yl ester]", "IC50": "> 3"}, {"smiles": "O=C(Oc1cc(-c2nc3ccccc3[nH]2)[nH]n1)C(F)(F)C(F)(F)C(F)(F)F", "note": "[Example 222, 2,2,3,3,4,4,4-Heptafluoro-butyric acid 5-(1H-benzoimidazol-2-yl)-1H-pyrazol-3-yl ester]", "IC50": "> 3"}, {"smiles": "O=C(Oc1cc(-c2nc3ccccc3[nH]2)[nH]n1)C1CCCC1", "note": "[Example 223, Cyclopentanecarboxylic acid 5-(1H-benzoimidazol-2-yl)-1H-pyrazol-3-yl ester]", "IC50": "> 3"}, {"smiles": "O=C(CCc1ccccc1)Oc1cc(-c2nc3ccccc3[nH]2)[nH]n1", "note": "[Example 224, 3-Phenyl-propionic acid 5-(1H-benzoimidazol-2-yl)-1H-pyrazol-3-yl ester]", "IC50": "0.3 to 3"}, {"smiles": "O=C(Oc1cc(-c2nc3ccccc3[nH]2)[nH]n1)c1ccc(-c2ccccc2)cc1", "note": "[Example 225, Biphenyl-4-carboxylic acid 5-(1H-benzoimidazol-2-yl)-1H-pyrazol-3-yl ester]", "IC50": "> 3"}, {"smiles": "O=C(Oc1cc(-c2nc3ccccc3[nH]2)[nH]n1)c1cc(C(F)(F)F)cc(C(F)(F)F)c1", "note": "[Example 226, 3,5-Bis-trifluoromethyl-benzoic acid 5-(1H-benzoimidazol-2-yl)-1H-pyrazol-3-yl ester]", "IC50": "> 3"}, {"smiles": "O=C(Oc1cc(-c2nc3ccccc3[nH]2)[nH]n1)c1ccc(C(F)(F)F)cc1", "note": "[Example 227, 4-Trifluoromethyl-benzoic acid 5-(1H-benzoimidazol-2-yl)-1H-pyrazol-3-yl ester]", "IC50": "> 3"}, {"smiles": "O=C(Oc1cc(-c2nc3ccccc3[nH]2)[nH]n1)c1cccs1", "note": "[Example 228, Thiophene-2-carboxylic acid 5-(1H-benzoimidazol-2-yl)-1H-pyrazol-3-yl ester]", "IC50": "> 3"}]}]}
